Experimental data published in PMC12156185, “Synthesis of Cyclic Hexapeptides via the Hydrazide Method and Evaluation of Their Antibacterial Activities” (Molecules, 2025).
In brackets after ≈: the same amount, converted by molar mass. Where a SMILES comes first, the peptide text is derived from it.

Legend:
[1] = test system: Acinetobacter baumannii (BNCC 337173); assay type: cell-based
Description: (§1) The antimicrobial and antifungal activities of 11 cyclic hexapeptides (Cy-f1 to Cy-f11) were evaluated by determining their minimum inhibitory concentrations (MICs) against a panel of pathogens (Figure 4). These pathogens included Gram-negative bacteria (Escherichia coli, Klebsiella pneumoniae, Pseudomonas aeruginosa), Gram-positive bacteria (Staphylococcus aureus, Bacillus subtilis, Staphylococcus aureus [MRSA], […]), and fungi (Candida tropicalis, Cryptococcus neoformans).
(§2) The antibacterial activity of peptide analogs was tested against different bacterial strains, all purified cyclotides underwent antibacterial testing against Gram-positive bacterium Staphylococcus aureus (BNCC 186335), Bacillus subtilis (BNCC 109047), and Staphylococcus aureus (MRSA, BNCC 330041), Gram-negative bacteria, including Acinetobacter baumannii (BNCC 337173), Pseudomonas aeruginosa (BNCC 125486), and […]. Fungi included Candida parapsilosis (BNCC 336515) and Candida tropicalis (BNCC 340288). All the above strains are from the Henan Provincial Engineering Research Center of Industrial Microorganisms (Henan, China). Escherichia coli (ATCC 25922) and Klebsiella pneumoniae (CMCC(B) 46117) were sourced from Guangzhou HuanKai Microbial Technology Co., Ltd. (Guangzhou, China). The peptides’ MIC was determined using the Clinical and Laboratory Standards Institute broth dilution procedure with slight modifications.
(§3) Colonies of these bacterial strains were grown in respective agar media, then inoculated in Mueller Hinton (MH) broth and incubated at 37 °C overnight. The peptide solutions were first diluted 1 in 100 (from the stock solution at 20 mM) and then further two-fold dilution in MH broth in a sterile 96-well plate was performed, resulting in 100 µL of broth containing increasing concentrations. Bacteria in their exponential growth phase were diluted in MH broth, and 100 µL of this suspension was added in each well. […] Then, these plates were incubated at 37 °C for 20–22 h.
(§4) Each test was performed at least three times. MIC (minimum inhibitory concentration) values were determined as the concentrations of peptides that caused >99% inhibition of bacterial growth.

[2] = test system: Bacillus subtilis (BNCC 109047); assay type: cell-based
Description: as §1, §2, §3, §4

[3] = test system: Escherichia coli (ATCC 25922); assay type: cell-based
Description: as §1, §2, §3, §4

[4] = test system: Klebsiella pneumoniae (CMCC(B) 46117); assay type: cell-based
Description: as §1, §2, §3, §4

[5] = test system: Pseudomonas aeruginosa (BNCC 125486); assay type: cell-based
Description: as §1, §2, §3, §4

[6] = test system: Staphylococcus aureus (BNCC 186335); assay type: cell-based
Description: as §1, §2, §3, §4

[7] = test system: Staphylococcus aureus (MRSA, BNCC 330041); assay type: cell-based
Description: as §1, §2, §3, §4

[8] = test system: Cryptococcus neoformans (BNCC 225501); assay type: cell-based; conditions: BNCC 225501, 48 h
Description: as §1, §2, §4

[9] = test system: Candida tropicalis (BNCC 340288); assay type: cell-based; conditions: BNCC 340288, 24 h
Description: as §1, §2
Candida tropicalis was cultured on Sabourad Dextrose Agar (SDA). A single colony was inoculated in YM broth medium and grown overnight at 37 °C while shaking. Peptides were diluted in SDB media by two-fold dilution, resulting in 100 µL of medium containing increasing concentrations. The overnight culture (turbidity at OD600 = 1) was 1000× diluted in SDB. Then 100 µL of this suspension was added to each well, resulting in a final 200 µL suspension containing 2–4 × 10^5 CFU/mL. The plate was incubated at 37 °C for 24 h.
as §4

[10] = Head-to-tail amide via hydrazide-based intramolecular NCL: C-terminal peptide hydrazide + NaNO2 (10 eq, pH 3, -15 °C) to acyl azide, then MPAA (40 eq) thioester, pH 6.3-6.5 (Fig 2: 6.7-7), S-to-N acyl shift onto N-terminal Cys; TCEP work-up; conditions: the molecule shown is the open-chain precursor; 18-membered ring; 0.2 M sodium phosphate, 6 M guanidine HCl (aq); 0.75 mM; 25.0 °C

Row | MIC against A. baumannii [1] | MIC against B. subtilis [2] | MIC against E. coli [3] | MIC against K. pneumoniae [4] | MIC against P. aeruginosa [5] | MIC against S. aureus [6] | MIC against MRSA [7] | MIC against C. neoformans [8] | MIC against C. tropicalis [9] | Compound | ring closure, product found (1=cyclised, 0=failed) [10]
1 | 128 µM (≈ 93.8 µg/mL) | 32 µM (≈ 23.5 µg/mL) | 64 µM (≈ 46.9 µg/mL) | 64 µM (≈ 46.9 µg/mL) | 128 µM (≈ 93.8 µg/mL) | 16 µM (≈ 11.7 µg/mL) | 32 µM (≈ 23.5 µg/mL) | 8 µM (≈ 5.86 µg/mL) | 32 µM (≈ 23.5 µg/mL) | CC[C@H](C)[C@@H]1NC(=O)[C@H](CCCCN)NC(=O)[C@H](CC(C)C)NC(=O)[C@H](CCCCN)NC(=O)[C@H](CS)NC(=O)[C@H](Cc2ccccc2)NC1=O [Cy-f3] (cyclo(CKLKIF)) | 
2 |  |  | 128 µM (≈ 91 µg/mL) |  | 128 µM (≈ 91 µg/mL) | 16 µM (≈ 11.4 µg/mL) |  | 32 µM (≈ 22.8 µg/mL) | 64 µM (≈ 45.5 µg/mL) | CC[C@H](C)[C@@H]1NC(=O)[C@H]([C@@H](C)CC)NC(=O)[C@@H]2CCCN2C(=O)[C@H](CCCCN)NC(=O)[C@H](CCCNC(=N)N)NC(=O)[C@H](CS)NC1=O [Cy-f5] (cyclo(CRKPII)) | 
3 | > 200 µM | > 200 µM | > 200 µM | > 200 µM | > 200 µM | > 200 µM | > 200 µM | > 200 µM | > 200 µM | CC[C@H](C)[C@@H]1NC(=O)[C@@H]2CCCN2C(=O)[C@H](CCCCN)NC(=O)[C@H](CCCNC(=N)N)NC(=O)[C@H](CS)NC(=O)[C@H](C(C)C)NC1=O [Cy-f6] (cyclo(CRKPIV)) | 
4 |  |  | 128 µM (≈ 89.2 µg/mL) |  | 128 µM (≈ 89.2 µg/mL) | 32 µM (≈ 22.3 µg/mL) |  | 16 µM (≈ 11.2 µg/mL) | 32 µM (≈ 22.3 µg/mL) | CC(C)C[C@@H]1NC(=O)[C@H](C(C)C)NC(=O)[C@@H]2CCCN2C(=O)[C@H](CCCCN)NC(=O)[C@H](CCCNC(=N)N)NC(=O)[C@H](CS)NC1=O [Cy-f7] (cyclo(CRKPVL)) | 
5 |  | 8 µM (≈ 5.82 µg/mL) | 16 µM (≈ 11.6 µg/mL) | 32 µM (≈ 23.3 µg/mL) |  | 8 µM (≈ 5.82 µg/mL) |  | 32 µM (≈ 23.3 µg/mL) | 16 µM (≈ 11.6 µg/mL) | CC[C@H](C)[C@@H]1NC(=O)[C@H](CCCNC(=N)N)NC(=O)[C@H](CS)NC(=O)[C@H](CCCNC(=N)N)NC(=O)[C@H](C(C)C)NC(=O)[C@H](C(C)C)NC1=O [Cy-f8] (cyclo(CRIVVR)) | 
6 | > 200 µM | > 200 µM | > 200 µM | > 200 µM | > 200 µM | > 200 µM | > 200 µM | > 200 µM | > 200 µM | CC[C@H](C)[C@@H]1NC(=O)[C@H](CS)NC(=O)[C@H](CC(C)C)NC(=O)[C@H]([C@@H](C)CC)NC(=O)[C@@H]2CCCN2C(=O)[C@H](CCCNC(=N)N)NC1=O [Cy-f9] (cyclo(CIRPIL)) | 
7 |  |  |  |  | 128 µM (≈ 94.8 µg/mL) | 8 µM (≈ 5.93 µg/mL) |  | 16 µM (≈ 11.9 µg/mL) | 128 µM (≈ 94.8 µg/mL) | CC[C@H](C)[C@@H]1NC(=O)[C@H](C(C)C)NC(=O)[C@H](CCCNC(=N)N)NC(=O)[C@H](CS)NC(=O)[C@H](CCCNC(=N)N)NC(=O)[C@H]([C@@H](C)CC)NC1=O [Cy-f10] (cyclo(CRVIIR)) | 
8 | > 200 µM | 64 µM (≈ 44.5 µg/mL) | > 200 µM | 64 µM (≈ 44.5 µg/mL) | > 200 µM | > 200 µM | > 200 µM | 128 µM (≈ 89.1 µg/mL) | 64 µM (≈ 44.5 µg/mL) | CC[C@H](C)[C@@H]1NC(=O)[C@H](CS)NC(=O)[C@H]([C@@H](C)CC)NC(=O)[C@H]([C@@H](C)CC)NC(=O)[C@@H]2CCCN2C(=O)[C@H](CCCNC(=N)N)NC1=O [Cy-f11] (cyclo(CIRPII)) | 
9 |  |  |  |  |  |  |  |  |  | CC[C@H](C)[C@H](NC(=O)[C@H](CCCNC(=N)N)NC(=O)[C@@H](N)CS)C(=O)N[C@H](C(=O)N[C@H](C(=O)N[C@@H](CCCNC(=N)N)C(=O)NN)C(C)C)C(C)C [H-Cys-Arg-Ile-Val-Val-Arg-NHNH2] | 1
10 |  |  |  |  |  |  |  |  |  | CC[C@H](C)[C@H](NC(=O)[C@H](CCCCN)NC(=O)[C@H](CC(C)C)NC(=O)[C@H](CCCNC(=N)N)NC(=O)[C@@H](N)CS)C(=O)N[C@@H](Cc1ccccc1)C(=O)NN [H-Cys-Arg-Leu-Lys-Ile-Phe-NHNH2] | 1
11 |  |  |  |  |  |  |  |  |  | CC[C@H](C)[C@H](NC(=O)[C@@H](NC(=O)[C@@H]1CCCN1C(=O)[C@H](CCCCN)NC(=O)[C@H](CCCNC(=N)N)NC(=O)[C@@H](N)CS)[C@@H](C)CC)C(=O)NN [H-Cys-Arg-Lys-Pro-Ile-Ile-NHNH2] | 1
12 |  |  |  |  |  |  |  |  |  | CC[C@H](C)[C@H](NC(=O)[C@@H]1CCCN1C(=O)[C@H](CCCCN)NC(=O)[C@H](CCCNC(=N)N)NC(=O)[C@@H](N)CS)C(=O)N[C@H](C(=O)NN)C(C)C [H-Cys-Arg-Lys-Pro-Ile-Val-NHNH2] | 1
13 |  |  |  |  |  |  |  |  |  | CC(C)C[C@H](NC(=O)[C@@H](NC(=O)[C@@H]1CCCN1C(=O)[C@H](CCCCN)NC(=O)[C@H](CCCNC(=N)N)NC(=O)[C@@H](N)CS)C(C)C)C(=O)NN [H-Cys-Arg-Lys-Pro-Val-Leu-NHNH2] | 1
14 |  |  |  |  |  |  |  |  |  | CC[C@H](C)[C@H](NC(=O)[C@@H](NC(=O)[C@H](CCCNC(=N)N)NC(=O)[C@@H](N)CS)C(C)C)C(=O)N[C@H](C(=O)N[C@@H](CCCNC(=N)N)C(=O)NN)[C@@H](C)CC [H-Cys-Arg-Val-Ile-Ile-Arg-NHNH2] | 1
15 |  |  |  |  |  |  |  |  |  | CC[C@H](C)[C@H](NC(=O)[C@@H](NC(=O)[C@@H]1CCCN1C(=O)[C@H](CCCNC(=N)N)NC(=O)[C@@H](NC(=O)[C@@H](N)CS)[C@@H](C)CC)[C@@H](C)CC)C(=O)NN [H-Cys-Ile-Arg-Pro-Ile-Ile-NHNH2] | 1
16 |  |  |  |  |  |  |  |  |  | CC[C@H](C)[C@H](NC(=O)[C@@H](N)CS)C(=O)N[C@@H](CCCNC(=N)N)C(=O)N1CCC[C@H]1C(=O)N[C@H](C(=O)N[C@@H](CC(C)C)C(=O)NN)[C@@H](C)CC [H-Cys-Ile-Arg-Pro-Ile-Leu-NHNH2] | 1
17 |  |  |  |  |  |  |  |  |  | CC[C@H](C)[C@H](NC(=O)[C@H](CCCCN)NC(=O)[C@H](CC(C)C)NC(=O)[C@H](CC(C)C)NC(=O)[C@@H](N)CS)C(=O)N[C@@H](Cc1ccccc1)C(=O)NN [H-Cys-Leu-Leu-Lys-Ile-Phe-NHNH2] | 1
18 |  |  |  |  |  |  |  |  |  | CC(C)C[C@H](NC(=O)[C@H](CCCCN)NC(=O)[C@@H](N)CS)C(=O)N[C@@H](CCCNC(=N)N)C(=O)N[C@@H](Cc1c[nH]c2ccccc12)C(=O)N[C@@H](Cc1ccccc1)C(=O)NN [H-Cys-Lys-Leu-Arg-Trp-Phe-NHNH2] | 1
19 |  |  |  |  |  |  |  |  |  | CC[C@H](C)[C@H](NC(=O)[C@H](CCCCN)NC(=O)[C@H](CC(C)C)NC(=O)[C@H](CCCCN)NC(=O)[C@@H](N)CS)C(=O)N[C@@H](Cc1ccccc1)C(=O)NN [H-Cys-Lys-Leu-Lys-Ile-Phe-NHNH2] | 1
